Assay results published in US20080287375A1, “Selective Glycosidase Inhibitors, Methods of Making Inhibitors, and Uses Thereof” (SIMON FRASER UNIVERSITY, priority 2005, published 2008).
Entries after “also recorded” stand apart in the source; their conditions may differ. Marks after values point to notes of the source that are not given here. Values belong to the compound of their own block, whether it stands above or below them.

Legend:
[1] = system: O-GlcNAc modified proteins in rat tissues; test: Oral availability: tissue O-GlcNAc levels in rats fed inhibitor in chow; format: in vivo
Procedure: To determine if the inhibitor 9c is orally available, it was incorporated into the chow (Lab Diet 5001 Rodent Diet, PMI Nutrition International, LLC). To make the rat chow, 600 g of the ground chow was mixed with 355 ml of water and 5 μL of the inhibitor dissolved in ethanol. Small pieces were then prepared with a pasta machine (Pasta Express, Creative) and dehydrated overnight at 37° C. (Snackmaster Dehydrator, American Harvest). Five sets of chow were made with the following amounts of inhibitor: 0 mg kg^−1 days^−1, 100 or 1000 mg kg^−1 days^−1 of the deprotected (polar) inhibitor, and 100 or 1000 mg kg^−1 day^−1 of the protected (non-polar) inhibitor. […] Ten five-week old healthy Sprague-Dawley rats (two per set of food) were then allowed to feed on the rat chow for three days. The animals were then sacrificed and tissues were collected, homogenized, and analyzed as described above.

O-GlcNAcase [2] = biological target: T1, O-GlcNAcase (Homo sapiens, UniProt O60502); conditions: for Selectivity Ratio (β-Hex KI/O-GlcNAcase KI): Table 2
T1 sequence (O60502 1-916): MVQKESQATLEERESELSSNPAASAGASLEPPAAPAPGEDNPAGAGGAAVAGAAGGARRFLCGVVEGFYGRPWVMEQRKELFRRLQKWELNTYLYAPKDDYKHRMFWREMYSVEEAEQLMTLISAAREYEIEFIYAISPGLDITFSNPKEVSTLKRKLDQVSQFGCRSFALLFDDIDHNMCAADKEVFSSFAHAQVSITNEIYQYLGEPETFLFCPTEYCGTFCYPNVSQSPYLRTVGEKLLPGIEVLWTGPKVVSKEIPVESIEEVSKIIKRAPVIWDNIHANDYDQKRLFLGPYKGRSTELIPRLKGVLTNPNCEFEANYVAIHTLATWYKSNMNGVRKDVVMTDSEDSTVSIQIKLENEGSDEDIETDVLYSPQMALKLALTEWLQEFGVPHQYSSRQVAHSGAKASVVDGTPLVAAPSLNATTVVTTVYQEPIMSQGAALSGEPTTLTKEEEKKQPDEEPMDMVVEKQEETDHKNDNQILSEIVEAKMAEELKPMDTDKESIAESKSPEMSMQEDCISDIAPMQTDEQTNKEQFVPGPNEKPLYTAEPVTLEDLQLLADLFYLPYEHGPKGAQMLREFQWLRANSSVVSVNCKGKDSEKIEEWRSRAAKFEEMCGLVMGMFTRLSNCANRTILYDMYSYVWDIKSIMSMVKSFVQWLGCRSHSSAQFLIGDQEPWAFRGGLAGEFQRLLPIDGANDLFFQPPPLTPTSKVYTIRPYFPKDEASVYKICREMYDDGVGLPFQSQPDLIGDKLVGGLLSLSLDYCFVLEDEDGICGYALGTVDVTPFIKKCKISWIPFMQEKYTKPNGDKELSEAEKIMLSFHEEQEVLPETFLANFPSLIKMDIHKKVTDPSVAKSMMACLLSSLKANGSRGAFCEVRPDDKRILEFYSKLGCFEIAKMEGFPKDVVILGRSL

O-GlcNAcase [3] = biological target: T1, O-GlcNAcase; test: biochemical
[4] = system: human placental β-hexosaminidase; test: Inhibition of β-hexosaminidase, substrate MU-GlcNAc (5), Dixon plots
O-GlcNAcase [5] = biological target: T1, O-GlcNAcase; test: Inhibition of O-GlcNAcase, substrate pNP-GlcNAc, Dixon plots; conditions: for Selectivity Ratio (β-Hexosaminidase KI/O-GlcNAcase KI): Table 3
[6] = system: human placental β-hexosaminidase; test: Inhibition of β-hexosaminidase, substrate pNP-GlcNAc, Dixon plots; conditions: for Ki: read-out: β-Hexosaminidase KI, Table 3, substrate pNP-GlcNAc 0.5 mM, pH 4.25
human β-hexosaminidase = test: Michaelis-Menten kinetics of β-hexosaminidase catalyzed hydrolysis of 4-methylumbelliferyl GlcNAc substrate analogues; format: biochemical; conditions: 37° C., pH 4.25
Text: These compounds were first tested with the lysosomal human β-hexosamindase since this enzyme is known to proceed via a mechanism involving anchimeric assistance (FIG. 2A). Although Michaelian saturation kinetics were not observed for all substrates (Table 1), Vmax[E]o/KM, which is proportional to the second order rate constant governing the enzyme catalyzed reaction, could be determined from the initial slope of the Michaelis-Menten plot (FIG. 2A Inset). […] As expected, decreasing the basicity of the carbonyl oxygen has a deleterious effect on catalysis.

O-GlcNAcase [7] = biological target: T1, O-GlcNAcase; test: Michaelis-Menten kinetics of O-GlcNAcase catalyzed hydrolysis of 4-methylumbelliferyl GlcNAc substrate analogues; format: biochemical; conditions: 37° C., pH 6.5
Text: For O-GlcNAcase the value of Vmax[E]0/KM is also dependant on the extent of fluorine substitution but the slope is more shallow (ρ=−0.42±0.08, FIG. 2C).

[8] = rats fed inhibitor in food for three days
[9] = read-out: β-Hexosaminidase KI, Table 2, substrate 5 at 0.64 mM, pH 4.25, Dixon plots
[10] = read-out: KI, β-hexosaminidase, human lysosomal β-hexosaminidase

SMILES: CCCC1=N[C@@H]2[C@@H](OC(C)=O)[C@H](OC(C)=O)[C@@H](COC(C)=O)O[C@@H]2S1 [9c (protected), 3,4,6-tri-O-acetyl-1,2-dideoxy-2′-propyl-α-D-glucopyranoso-[2,1-d]-Δ2′-thiazoline]
- cellular levels of O-GlcNAc modified proteins in brain tissue, oral 100 mg/kg/day ([1]; rats fed inhibitor in chow for three days): marked increases
- cellular levels of O-GlcNAc modified proteins in brain tissue, oral 1000 mg/kg/day ([1]; rats fed inhibitor in chow for three days, compared with 100 mg/kg/day): even greater
- O-GlcNAc modified proteins in brain, muscle, pancreas, fat and spleen, oral 100 mg kg^−1 day^−1 (FIG. 12 legend) [1, 8]: large increases
- O-GlcNAc modified proteins in tissues, oral 1000 mg kg^−1 days^−1 (FIG. 12 legend) [1, 8]: slightly greater increases

SMILES: CCC1=N[C@@H]2[C@@H](O)[C@H](O)[C@@H](CO)O[C@@H]2S1 [Compound 9b, 1,2-dideoxy-2′-ethyl-α-D-glucopyranoso-[2,1-d]-Δ2′-thiazoline]
- inhibition of O-GlcNAcase, in words (O-GlcNAcase [2]): potent inhibitors
- selectivity for O-GlcNAcase over β-hexosaminidase, in words (O-GlcNAcase [2]): remarkable selectivity
- Selectivity Ratio (β-Hex KI/O-GlcNAcase KI) (O-GlcNAcase [2]): 270
- Ki (O-GlcNAcase [3]): 0.12 µM
- increase in KI for β-hexosaminidase compared to parent NAG-thiazoline (9a) [4]: 460 fold
- Ki [4, 9]: 32 µM

SMILES: CCCCC1=N[C@@H]2[C@@H](O)[C@H](O)[C@@H](CO)O[C@@H]2S1 [Compound 9d, 1,2-dideoxy-2′-butyl-α-D-glucopyranoso-[2,1-d]-Δ2′-thiazoline]
- selectivity ratio for O-GlcNAcase over β-hexosaminidase (O-GlcNAcase [2]): 3100 fold
- Selectivity Ratio (β-Hex KI/O-GlcNAcase KI) (O-GlcNAcase [2]): 3100
- Ki (O-GlcNAcase [3]): 1.5 µM
- Ki [4, 9]: 4600 µM

SMILES: CCCCCC1=N[C@@H]2[C@@H](O)[C@H](O)[C@@H](CO)O[C@@H]2S1 [Compound 9e, 1,2-dideoxy-2′-pentyl-α-D-glucopyranoso-[2,1-d]-Δ2′-thiazoline]
- Selectivity Ratio (β-Hex KI/O-GlcNAcase KI) (O-GlcNAcase [2]): 100
- Ki (O-GlcNAcase [3]): 57 µM
- Ki [4, 9]: 11000 µM

SMILES: CC(C)C1=N[C@@H]2[C@@H](O)[C@H](O)[C@@H](CO)O[C@@H]2S1 [Compound 9f, 1,2-dideoxy-2′-isopropyl-α-D-glucopyranoso-[2,1-d]-Δ2′-thiazoline]
- inhibition of O-GlcNAcase, in words (O-GlcNAcase [2]): good inhibitors; also recorded: potent inhibitors
- selectivity for O-GlcNAcase over β-hexosaminidase, in words (O-GlcNAcase [2]): remarkable selectivity
- selectivity ratio for O-GlcNAcase over β-hexosaminidase (O-GlcNAcase [2]): 700 fold
- Selectivity Ratio (β-Hex KI/O-GlcNAcase KI) (O-GlcNAcase [2]): 700
- Ki (O-GlcNAcase [3]): 1.6 µM
- Ki [4, 9]: 720 µM

SMILES: CCC(=O)N[C@H]1C(=NOC(=O)Nc2ccccc2)O[C@H](CO)[C@@H](O)[C@@H]1O [Compound 22a]
- Ki (O-GlcNAcase [5]): 1.2 µM
- Selectivity Ratio (β-Hexosaminidase KI/O-GlcNAcase KI) (O-GlcNAcase [5]): 1
- increase in KI for β-hexosaminidase compared to parent PUGNAc [6]: 33 fold
- Ki [6]: 1.2 µM

SMILES: CCCC(=O)N[C@H]1C(=NOC(=O)Nc2ccccc2)O[C@H](CO)[C@@H](O)[C@@H]1O [Compound 22b, O-(2-deoxy-2-butamido-D-glucopyranosylidene)amino N-Phenylcarbamate]
- Ki (O-GlcNAcase [5]): 2.4 µM
- Selectivity Ratio (β-Hexosaminidase KI/O-GlcNAcase KI) (O-GlcNAcase [5]): 11
- Ki [6]: 26 µM

SMILES: CCCCC(=O)NC1C(=NOC(=O)Nc2ccccc2)OC(CO)C(O)C1O (stereo not shown) [Compound 22c]
- Ki (O-GlcNAcase [5]): 40 µM
- Selectivity Ratio (β-Hexosaminidase KI/O-GlcNAcase KI) (O-GlcNAcase [5]): 6
- Ki [6]: 220 µM

SMILES: Cc1cc(=O)oc2cc(O[C@@H]3O[C@H](CO)[C@@H](O)[C@H](O)[C@H]3NC(=O)CF)ccc12 [MuGlcNAc-F1, 4-Methylumbelliferyl 2-deoxy-2-fluoroacetamido-β-D-glucopyranoside]
- Km (human β-hexosaminidase): 3800 ± 400 µM
- Vmax [E]o (human β-hexosaminidase): 3.3 ± 0.2^b μmol min^−1 mg^−1
- Km (O-GlcNAcase [7]): 490 ± 60 µM
- Vmax [E]o (O-GlcNAcase [7]): 0.60 ± 0.03 µmol/min/mg

SMILES: Cc1cc(=O)oc2cc(O[C@@H]3O[C@H](CO)[C@@H](O)[C@H](O)[C@H]3NC(=O)C(F)F)ccc12 [MuGlcNAc-F2, 4-Methylumbelliferyl 2-deoxy-2-difluoroacetamido-β-D-glucopyranoside]
- Km (O-GlcNAcase [7]): 450 ± 50 µM
- Vmax [E]o (O-GlcNAcase [7]): 0.16 ± 0.01 µmol/min/mg

SMILES: Cc1cc(=O)oc2cc(O[C@@H]3O[C@H](CO)[C@@H](O)[C@H](O)[C@H]3NC(=O)C(F)(F)F)ccc12 [MuGlcNAc-F3, 4-Methylumbelliferyl 2-deoxy-2-trifluoroacetamido-β-D-glucopyranoside]
- Km (O-GlcNAcase [7]): 380 ± 30 µM
- Vmax [E]o (O-GlcNAcase [7]): 0.033 ± 0.001 µmol/min/mg

The remaining lines, values ahead:

- Ki (O-GlcNAcase [5]): 210 µM
- Selectivity Ratio (β-Hexosaminidase KI/O-GlcNAcase KI) (O-GlcNAcase [5]): ≧5
- Ki [6]: > 900 µM
SMILES: CCCCCC(=O)N[C@H]1C(=NOC(=O)Nc2ccccc2)O[C@H](CO)[C@@H](O)[C@@H]1O [Compound 22d, O-(2-deoxy-2-hexamido-D-glucopyranosylidene)amino N-Phenylcarbamate]

- Ki (O-GlcNAcase [5]): 9 µM
- Selectivity Ratio (β-Hexosaminidase KI/O-GlcNAcase KI) (O-GlcNAcase [5]): 2
- Ki [6]: 20 µM
SMILES: CC(C)C(=O)N[C@H]1C(=NOC(=O)Nc2ccccc2)O[C@H](CO)[C@@H](O)[C@@H]1O [Compound 22e, O-(2-deoxy-2-isobutamido-D-glucopyranosylidene)amino N-Phenylcarbamate]

- Ki (O-GlcNAcase [5]): 190 µM
- Selectivity Ratio (β-Hexosaminidase KI/O-GlcNAcase KI) (O-GlcNAcase [5]): ≧6
- Ki [6]: > 1200 µM
SMILES: CC(C)CC(=O)N[C@H]1C(=NOC(=O)Nc2ccccc2)O[C@H](CO)[C@@H](O)[C@@H]1O [Compound 22f, O-(2-deoxy-2-isovaleramido-D-glucopyranosylidene)amino N-Phenylcarbamate]

- Selectivity Ratio (β-Hex KI/O-GlcNAcase KI) (O-GlcNAcase [2]): 0.8
- Ki (O-GlcNAcase [3]): 1500 µM
- Ki [4, 10]: 1200 µM
- Ki [4, 9]: 1200 µM
SMILES: CC(=O)N[C@H]1C(O)O[C@H](CO)[C@@H](O)[C@@H]1O (stereo partly shown) [GlcNAc, N-acetylglucosamine, reference compound]

- Km (human β-hexosaminidase): 880 ± 50 µM
- Vmax [E]o (human β-hexosaminidase): 8.3 ± 0.2 µmol/min/mg
- Km (O-GlcNAcase [7]): 430 ± 40 µM
- Vmax [E]o (O-GlcNAcase [7]): 0.74 ± 0.02 µmol/min/mg
SMILES: CC(=O)N[C@H]1[C@H](Oc2ccc3c(C)cc(=O)oc3c2)O[C@H](CO)[C@@H](O)[C@@H]1O [MuGlcNAc, reference compound]

- Ki [6]: 0.036 µM
- Ki [4, 10]: 0.036 µM
- Ki [4, 9]: 0.036 µM
SMILES: CC(=O)N[C@H]1/C(=N/OC(=O)Nc2ccccc2)O[C@H](CO)[C@@H](O)[C@@H]1O [PUGNAc, O-(2-acetamido-2-deoxy-D-glucopyranosylidene)amino N-phenylcarbamate]
